Data published in PMC8949600, “In Vitro & In Vivo Studies on Identifying and Designing Temporin-1CEh from the Skin Secretion of Rana chensinensis as the Optimised Antibacterial Prototype Drug” (Pharmaceutics, 2022).
Read-outs that look alike come from different tables or passages of the source. Ends that are not written are not given here.

What was measured:
[1] = 50% TFE environment ref 44; cited from earlier work
Description: As the same situation found in the study of Temporin B KKG6A [31], T1CEh-KK experienced an improvement in antimicrobial activity, especially for the inhibition of the growth of E. coli. In addition, the substitution by proline leads to the weakening of the antimicrobial ability of T1CEh-KKP except for against S. aureus.

[2] = test system: K. pneumoniae (ATCC 43816); type: cell-based
Method: (§1) A measure of 5 × 10^5 CFU/mL of bacterial suspension including 2-fold dilution peptides (ranging from 1 µM to 512 µM) was incubated in 96-well plates for 16–20 h at 37 °C. For the positive and negative control, 200 mg/L of final concentration of norfloxacin and 1% DMSO were applied, respectively. […] Subsequently, 10 µL of the solution in each clear well was dropped on a Mueller–Hinton agar (MHA) plate and incubated at 37 °C for 16–20 h. The lowest concentration without colony growth was considered as the MBCs.
(§2) Mueller–Hinton broth (MHB) at pH 6.0 and 8.0 as well as MHB containing 10% of Fetal Bovine Serum (FBS), 150 mM of NaCl, 1 mM of MgCl2 and 4 µM of FeCl3, respectively, were prepared. In particular, the pathogens were diluted by the preprepared mediums to a final concentration of 5 × 10^5 CFU/mL after growing to the logarithmic phase, and other operations followed the MIC assay.

MRSA (NCTC 12493) = type: cell-based
Method: as §1, §2

E. faecalis (NCTC 12697) = type: cell-based
Method: as §1, §2

E. coli (ATCC 8739) = type: cell-based
Method: as §1, §2

[3] = test system: S. aureus (ATCC CRM 6538); type: cell-based
Method: as §1, §2

[4] = test system: P. aeruginosa (ATCC 27853); type: cell-based
Method: as §1, §2

[5] = test system: erythrocytes from defibrinated horse blood; experiment: Haemolysis assay; conditions: for haemolytic activity (in words): compared with the preceding peptide of the design series
Description: (§4) The erythrocytes from defibrinated horse blood (TCS Biosciences Ltd., Buckingham, UK) were used to perform the haemolysis assay, as described previously [27]. Equal volumes of PBS and 2% (v/v) of the non-ionic detergent, Triton X-100 (Sigma–Aldrich, St. Louis, MO, USA) in PBS solution, were used as negative and positive controls, respectively. HC50 was defined as the mean peptide concentration producing 50% haemolysis.

[6] = test system: S. aureus (ATCC CRM 6538) biofilm; type: cell-based
Method: (§3) The anti-biofilm activities were tested on S. aureus and E. coli, as indicated previously. For the positive and negative control, 20 mg/mL of vancomycin and 1% DMSO were applied, respectively, in both assays. In addition, 0.1% Crystal Violet was used as the biofilm colouring agent.

[7] = test system: erythrocytes from defibrinated horse blood; conditions: 256 µM
Description: as §4

[8] = test system: E. coli (ATCC 8739) biofilm; type: cell-based
Method: as §3

Row | Substance | MBC ([2]; ATCC 43816) [µM] | MIC ([2]; ATCC 43816) [µM] | MBC (MRSA (NCTC 12493); NCTC 12493) [µM] | MIC (MRSA (NCTC 12493); NCTC 12493) [µM] | MBC (E. faecalis (NCTC 12697); NCTC 12697) [µM] | MIC (E. faecalis (NCTC 12697); NCTC 12697) [µM] | MBC (E. coli (ATCC 8739); ATCC 8739) [µM] | MIC (E. coli (ATCC 8739); ATCC 8739) | MBC ([3]; ATCC CRM 6538) [µM] | MIC ([3]; ATCC CRM 6538) [µM] | MBC ([4]; ATCC 27853) [µM] | MIC ([4]; ATCC 27853) [µM] | haemolytic activity (in words) ([5]; horse erythrocytes) | MBEC [6] [µM] | MIC ([2]; ATCC 43816, pH 6) [µM] | MIC ([2]; ATCC 43816, pH 7) [µM] | MIC ([2]; ATCC 43816, pH 8) [µM] | MIC (MRSA (NCTC 12493); NCTC 12493, pH 6) [µM] | MIC (MRSA (NCTC 12493); NCTC 12493, pH 7) [µM] | MIC (MRSA (NCTC 12493); NCTC 12493, pH 8) [µM] | also measured
1 | Buforin II |  |  |  |  |  |  |  |  |  |  |  |  |  |  |  |  |  |  |  |  | helicity percent [1]: 43%
2 | FVDLKKIANII-NH2 [Peptide T1CEa-t] | > 512 | > 512 | > 512 | > 512 | > 512 | > 512 | > 512 | > 512 µM | > 512 | > 512 | > 512 | > 512 | completely lost |  |  |  |  |  |  |  | 
3 | FVDLKKIANIL-NH2 [Peptide T1CEh-t] | > 512 | > 512 | > 512 | > 512 | > 512 | > 512 | > 512 | > 512 µM | > 512 | > 512 | > 512 | > 512 | completely lost |  |  |  |  |  |  |  | 
4 | FVDLKKIANILNSIF-NH2 [Temporin-1CEh] | 256 | 256 | 16 | 16 | 32 | 32 |  | 128/128 μM | 16 | 8 | 256 | 128 |  | > 256 | >512 | 256 | >512 | 256 | 16 | 256 | MBIC [6]: 64 µM; MIC (E. faecalis (NCTC 12697); NCTC 12697, pH 6): >512 µM; MIC (E. faecalis (NCTC 12697); NCTC 12697, pH 7): 32 µM; MIC (E. faecalis (NCTC 12697); NCTC 12697, pH 8): >512 µM; MIC (E. coli (ATCC 8739); ATCC 8739, pH 6): >512 µM; MIC (E. coli (ATCC 8739); ATCC 8739, pH 7): 128 µM; MIC (E. coli (ATCC 8739); ATCC 8739, pH 8): >512 µM; MIC ([3]; ATCC CRM 6538, pH 6): 128 µM; MIC ([3]; ATCC CRM 6538, pH 7): 8 µM; MIC ([3]; ATCC CRM 6538, pH 8): 128 µM; MIC ([4]; ATCC 27853, pH 6): >512 µM; MIC ([4]; ATCC 27853, pH 7): 128 µM; MIC ([4]; ATCC 27853, pH 8): >512 µM; haemolysis rate [7]: 92.3%; HC50 ([5]; mean peptide concentration producing 50% haemolysis, horse erythrocytes): 152.6 µM
5 | KKFVDLKKIANIL-NH2 [Peptide T1CEh-KK] | 128 | 128 | > 512 | > 512 | > 512 | 64 | 16 | 8 µM | > 512 | 256 | 256 | 256 | maintained the low level of haemolysis |  |  |  |  |  |  |  | 
6 | KKFVPLKKIANIL-NH2 [Peptide T1CEh-KKP] | > 512 | > 512 | 256 | 256 | > 512 | > 512 | 128 | 128 µM | 64 | 32 | > 512 | 512 |  |  |  |  |  |  |  |  | 
7 | KKWVPLKKIANIL-NH2 [Peptide T1CEh-KKPW] | 16 | 16 | 64 | 16 | > 512 | > 512 | 16 | 8 µM | 16 | 8 | 64 | 32 |  | > 256 | 256 | 16 | 128 | >512 | 16 | 128 | MBEC [8]: > 256 µM; MBIC [8]: 16 µM; MBIC [6]: 16 µM; MIC (E. faecalis (NCTC 12697); NCTC 12697, pH 6): >512 µM; MIC (E. faecalis (NCTC 12697); NCTC 12697, pH 7): >512 µM; MIC (E. faecalis (NCTC 12697); NCTC 12697, pH 8): 256 µM; MIC (E. coli (ATCC 8739); ATCC 8739, pH 6): 16 µM; MIC (E. coli (ATCC 8739); ATCC 8739, pH 7): 8 µM; MIC (E. coli (ATCC 8739); ATCC 8739, pH 8): 8 µM; MIC ([3]; ATCC CRM 6538, pH 6): >512 µM; MIC ([3]; ATCC CRM 6538, pH 7): 8 µM; MIC ([3]; ATCC CRM 6538, pH 8): 32 µM; MIC ([4]; ATCC 27853, pH 6): 64 µM; MIC ([4]; ATCC 27853, pH 7): 32 µM; MIC ([4]; ATCC 27853, pH 8): 32 µM; haemolysis rate ([5]; at 256 μM, horse erythrocytes): lower than 10%
8 | KKWVPWKKIANIL-NH2 [Peptide T1CEh-KKPWW] | 4 | 4 | 256 | 32 | 128 | 128 | 4 | 4 µM | 4 | 4 | 16 | 16 |  | > 256 | 32 | 4 | 8 | 256 | 32 | 32 | MBEC [8]: > 256 µM; MIC (E. faecalis (NCTC 12697); NCTC 12697, pH 6): >512 µM; MIC (E. faecalis (NCTC 12697); NCTC 12697, pH 7): 128 µM; MIC (E. faecalis (NCTC 12697); NCTC 12697, pH 8): 64 µM; MIC (E. coli (ATCC 8739); ATCC 8739, pH 6): 4 µM; MIC (E. coli (ATCC 8739); ATCC 8739, pH 7): 4 µM; MIC (E. coli (ATCC 8739); ATCC 8739, pH 8): 4 µM; MIC ([3]; ATCC CRM 6538, pH 6): 32 µM; MIC ([3]; ATCC CRM 6538, pH 7): 4 µM; MIC ([3]; ATCC CRM 6538, pH 8): 4 µM; MIC ([4]; ATCC 27853, pH 6): 16 µM; MIC ([4]; ATCC 27853, pH 7): 16 µM; MIC ([4]; ATCC 27853, pH 8): 4 µM; haemolysis rates ([5]; concentration not stated at the place (gradient of Figure 4)): lower than 6%
